Reference: ChEMBL document CHEMBL4507290 (2021)

Legend:
[1] = target: 5'-AMP-activated protein kinase catalytic subunit alpha-1 (Homo sapiens) (UniProt Q13131); settings: Compound concentration 1000.0 nM
[2] = target: Aurora kinase B (Homo sapiens) (UniProt Q96GD4); settings: Compound concentration 1000.0 nM
[3] = target: Cyclin-dependent kinase 13 (Homo sapiens) (UniProt Q14004); settings: Compound concentration 1000.0 nM
[4] = target: Cyclin-dependent kinase 7 (Homo sapiens) (UniProt P50613); settings: Compound concentration 1000.0 nM
[5] = target: Dual specificity protein kinase CLK2 (Homo sapiens) (UniProt P49760); settings: Compound concentration 1000.0 nM
Sequence of Dual specificity protein kinase CLK2 (Homo sapiens) (P49760 whole entry, looked up): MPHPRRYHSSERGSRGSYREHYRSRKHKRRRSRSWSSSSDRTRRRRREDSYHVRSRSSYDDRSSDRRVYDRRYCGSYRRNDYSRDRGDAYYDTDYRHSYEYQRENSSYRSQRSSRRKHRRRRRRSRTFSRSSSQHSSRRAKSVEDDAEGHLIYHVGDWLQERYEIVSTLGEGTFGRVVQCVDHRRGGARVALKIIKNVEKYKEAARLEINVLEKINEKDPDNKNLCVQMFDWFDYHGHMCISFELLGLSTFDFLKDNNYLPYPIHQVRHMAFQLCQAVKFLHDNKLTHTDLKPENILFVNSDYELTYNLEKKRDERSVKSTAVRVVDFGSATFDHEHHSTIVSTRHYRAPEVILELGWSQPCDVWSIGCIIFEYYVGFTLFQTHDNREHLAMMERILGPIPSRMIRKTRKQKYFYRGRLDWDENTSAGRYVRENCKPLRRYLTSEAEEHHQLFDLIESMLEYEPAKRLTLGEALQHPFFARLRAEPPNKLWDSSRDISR

[6] = target: Macrophage colony-stimulating factor 1 receptor (Homo sapiens) (UniProt P07333); settings: Compound concentration 1000.0 nM
[7] = target: Tyrosine-protein kinase CSK (Homo sapiens) (UniProt P41240); settings: Compound concentration 1000.0 nM
[8] = test system: Epidermal growth factor receptor (Homo sapiens), P00533 [G719S]; settings: Compound concentration 1000.0 nM
[9] = test system: Epidermal growth factor receptor (Homo sapiens), P00533 [L861Q]; settings: Compound concentration 1000.0 nM
[10] = test system: Receptor-type tyrosine-protein kinase FLT3 (Homo sapiens), P36888 [UNDEFINED MUTATION]; settings: Compound concentration 1000.0 nM
[11] = target: Rhodopsin kinase GRK1 (Homo sapiens) (UniProt Q15835); settings: Compound concentration 1000.0 nM
[12] = target: Interleukin-1 receptor-associated kinase 4 (Homo sapiens) (UniProt Q9NWZ3); settings: Compound concentration 1000.0 nM
[13] = test system: Mast/stem cell growth factor receptor Kit (Homo sapiens), P10721 [D816H]; settings: Compound concentration 1000.0 nM
[14] = test system: Mast/stem cell growth factor receptor Kit (Homo sapiens), P10721 [V559D,T670I]; settings: Compound concentration 1000.0 nM
[15] = target: Serine/threonine-protein kinase STK11 (Homo sapiens) (UniProt Q15831); settings: Compound concentration 1000.0 nM
[16] = target: Mitogen-activated protein kinase kinase kinase 13 (Homo sapiens) (UniProt O43283); settings: Compound concentration 1000.0 nM
[17] = target: Dual specificity mitogen-activated protein kinase kinase 4 (Homo sapiens) (UniProt P45985); settings: Compound concentration 1000.0 nM
[18] = target: Tyrosine-protein kinase Mer (Homo sapiens) (UniProt Q12866); settings: Compound concentration 1000.0 nM
[19] = target: MAP kinase-interacting serine/threonine-protein kinase 2 (Homo sapiens) (UniProt Q9HBH9); settings: Compound concentration 1000.0 nM
[20] = target: Serine/threonine-protein kinase 26 (Homo sapiens) (UniProt Q9P289); settings: Compound concentration 1000.0 nM
Sequence of Serine/threonine-protein kinase 26 (Homo sapiens) (Q9P289 2-416 limits assumed): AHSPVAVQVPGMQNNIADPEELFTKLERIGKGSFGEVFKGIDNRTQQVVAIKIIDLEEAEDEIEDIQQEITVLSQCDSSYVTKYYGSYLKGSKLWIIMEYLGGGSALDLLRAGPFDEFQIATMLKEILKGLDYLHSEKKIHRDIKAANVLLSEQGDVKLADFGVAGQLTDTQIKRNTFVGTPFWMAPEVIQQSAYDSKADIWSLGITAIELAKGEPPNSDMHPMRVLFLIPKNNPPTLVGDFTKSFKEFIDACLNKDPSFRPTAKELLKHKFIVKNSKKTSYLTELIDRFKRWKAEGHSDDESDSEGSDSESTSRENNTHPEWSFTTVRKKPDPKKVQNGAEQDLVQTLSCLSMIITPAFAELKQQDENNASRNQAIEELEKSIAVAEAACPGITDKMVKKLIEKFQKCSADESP

[21] = target: Myosin light chain kinase, smooth muscle (Homo sapiens) (UniProt Q15746); settings: Compound concentration 1000.0 nM
[22] = target: Serine/threonine-protein kinase PAK 2 (Homo sapiens) (UniProt Q13177); settings: Compound concentration 1000.0 nM
[23] = target: Serine/threonine-protein kinase PAK 5 (Homo sapiens) (UniProt Q9P286); settings: Compound concentration 1000.0 nM
Sequence of Serine/threonine-protein kinase PAK 5 (Homo sapiens) (Q9P286 whole entry, looked up): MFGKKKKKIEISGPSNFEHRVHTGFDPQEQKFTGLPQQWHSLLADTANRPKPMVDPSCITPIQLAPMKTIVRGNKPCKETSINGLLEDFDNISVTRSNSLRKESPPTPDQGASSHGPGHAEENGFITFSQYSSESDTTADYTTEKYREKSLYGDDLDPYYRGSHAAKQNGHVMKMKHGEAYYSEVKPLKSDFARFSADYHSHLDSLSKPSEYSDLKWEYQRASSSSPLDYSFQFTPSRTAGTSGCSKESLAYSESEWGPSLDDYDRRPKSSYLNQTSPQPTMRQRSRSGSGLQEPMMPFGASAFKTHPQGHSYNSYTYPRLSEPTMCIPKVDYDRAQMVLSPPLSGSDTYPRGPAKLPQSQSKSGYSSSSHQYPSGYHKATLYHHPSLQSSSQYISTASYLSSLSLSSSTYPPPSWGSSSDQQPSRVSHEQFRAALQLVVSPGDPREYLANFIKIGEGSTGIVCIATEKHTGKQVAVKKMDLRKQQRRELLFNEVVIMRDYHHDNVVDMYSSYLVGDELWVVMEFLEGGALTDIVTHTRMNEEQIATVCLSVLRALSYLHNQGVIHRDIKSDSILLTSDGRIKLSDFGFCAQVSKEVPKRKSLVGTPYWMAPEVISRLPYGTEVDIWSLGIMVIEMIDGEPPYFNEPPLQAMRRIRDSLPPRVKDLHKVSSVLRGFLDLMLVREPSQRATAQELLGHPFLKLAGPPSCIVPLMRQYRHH

[24] = target: 3-phosphoinositide-dependent protein kinase 1 (Homo sapiens) (UniProt O15530); settings: Compound concentration 1000.0 nM
[25] = target: Phosphatidylinositol 4-phosphate 3-kinase C2 domain-containing subunit beta (Homo sapiens) (UniProt O00750); settings: Compound concentration 1000.0 nM
[26] = test system: Phosphatidylinositol 4,5-bisphosphate 3-kinase catalytic subunit alpha isoform (Homo sapiens), P42336 [H1047L]; settings: Compound concentration 1000.0 nM
[27] = target: Serine/threonine-protein kinase PknB (Mycobacterium tuberculosis) (UniProt P9WI81); settings: Compound concentration 1000.0 nM
Sequence of Serine/threonine-protein kinase PknB (Mycobacterium tuberculosis) (P9WI81 whole entry): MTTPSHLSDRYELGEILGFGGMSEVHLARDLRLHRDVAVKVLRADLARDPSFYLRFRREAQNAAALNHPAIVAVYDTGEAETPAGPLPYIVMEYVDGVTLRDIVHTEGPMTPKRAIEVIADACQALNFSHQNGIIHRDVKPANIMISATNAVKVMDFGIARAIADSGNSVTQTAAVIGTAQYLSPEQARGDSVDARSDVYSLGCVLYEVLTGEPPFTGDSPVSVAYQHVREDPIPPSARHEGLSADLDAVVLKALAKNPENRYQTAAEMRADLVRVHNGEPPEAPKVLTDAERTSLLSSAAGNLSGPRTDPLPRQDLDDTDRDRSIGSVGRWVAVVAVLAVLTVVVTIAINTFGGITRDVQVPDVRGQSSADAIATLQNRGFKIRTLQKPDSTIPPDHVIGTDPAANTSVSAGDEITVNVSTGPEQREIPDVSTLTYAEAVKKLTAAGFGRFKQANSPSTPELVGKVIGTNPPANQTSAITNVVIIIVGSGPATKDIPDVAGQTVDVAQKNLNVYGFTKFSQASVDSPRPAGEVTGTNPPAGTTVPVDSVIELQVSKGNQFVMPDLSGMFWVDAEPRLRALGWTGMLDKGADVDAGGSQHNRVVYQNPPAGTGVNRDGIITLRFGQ

[28] = target: Interferon-induced, double-stranded RNA-activated protein kinase (Homo sapiens) (UniProt P19525); settings: Compound concentration 1000.0 nM
[29] = test system: Proto-oncogene tyrosine-protein kinase receptor Ret (Homo sapiens), P07949 [M918T]; settings: Compound concentration 1000.0 nM
[30] = target: Rho-associated protein kinase 1 (Homo sapiens) (UniProt Q13464); settings: Compound concentration 1000.0 nM
[31] = target: Ribosomal protein S6 kinase alpha-4 (Homo sapiens) (UniProt O75676); settings: Compound concentration 1000.0 nM
[32] = target: Serine/threonine-protein kinase Sgk3 (Homo sapiens) (UniProt Q96BR1); settings: Compound concentration 1000.0 nM
[33] = target: Serine/threonine-protein kinase TBK1 (Homo sapiens) (UniProt Q9UHD2); settings: Compound concentration 1000.0 nM
[34] = target: Serine/threonine-protein kinase TNNI3K (Homo sapiens) (UniProt Q59H18); settings: Compound concentration 1000.0 nM
[35] = target: Serine/threonine-protein kinase ULK2 (Homo sapiens) (UniProt Q8IYT8); settings: Compound concentration 1000.0 nM
[36] = target: Phosphatidylinositol 3-kinase catalytic subunit type 3 (Homo sapiens) (UniProt Q8NEB9); settings: Compound concentration 1000.0 nM
[37] = target: Serine/threonine-protein kinase VRK2 (Homo sapiens) (UniProt Q86Y07); settings: Compound concentration 1000.0 nM
Sequence of Serine/threonine-protein kinase VRK2 (Homo sapiens) (Q86Y07 whole entry): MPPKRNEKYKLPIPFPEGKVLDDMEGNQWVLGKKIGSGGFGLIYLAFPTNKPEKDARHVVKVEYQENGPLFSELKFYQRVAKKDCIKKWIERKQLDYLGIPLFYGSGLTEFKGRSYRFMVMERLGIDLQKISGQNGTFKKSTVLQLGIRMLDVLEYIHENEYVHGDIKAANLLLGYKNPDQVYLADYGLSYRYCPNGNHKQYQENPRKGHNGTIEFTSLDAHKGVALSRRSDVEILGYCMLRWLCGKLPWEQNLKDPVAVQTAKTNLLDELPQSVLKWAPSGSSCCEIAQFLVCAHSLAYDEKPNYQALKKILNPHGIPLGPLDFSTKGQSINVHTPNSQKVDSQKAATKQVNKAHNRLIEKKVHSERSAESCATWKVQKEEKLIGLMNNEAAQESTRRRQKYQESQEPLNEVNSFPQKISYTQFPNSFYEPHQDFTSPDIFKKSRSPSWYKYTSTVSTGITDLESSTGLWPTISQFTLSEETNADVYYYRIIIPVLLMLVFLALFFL

[38] = target: Serine/threonine-protein kinase 25 (Homo sapiens) (UniProt O00506); settings: Compound concentration 1000.0 nM
[39] = target: 5-hydroxytryptamine receptor 2A (Homo sapiens) (UniProt P28223); settings: Compound concentration 10.0 uM
[40] = target: 5-hydroxytryptamine receptor 2C (Homo sapiens) (UniProt P28335); settings: Compound concentration 10.0 uM
[41] = target: 5-hydroxytryptamine receptor 7 (Homo sapiens) (UniProt P34969); settings: Compound concentration 10.0 uM
Sequence of 5-hydroxytryptamine receptor 7 (Homo sapiens) (P34969 whole entry): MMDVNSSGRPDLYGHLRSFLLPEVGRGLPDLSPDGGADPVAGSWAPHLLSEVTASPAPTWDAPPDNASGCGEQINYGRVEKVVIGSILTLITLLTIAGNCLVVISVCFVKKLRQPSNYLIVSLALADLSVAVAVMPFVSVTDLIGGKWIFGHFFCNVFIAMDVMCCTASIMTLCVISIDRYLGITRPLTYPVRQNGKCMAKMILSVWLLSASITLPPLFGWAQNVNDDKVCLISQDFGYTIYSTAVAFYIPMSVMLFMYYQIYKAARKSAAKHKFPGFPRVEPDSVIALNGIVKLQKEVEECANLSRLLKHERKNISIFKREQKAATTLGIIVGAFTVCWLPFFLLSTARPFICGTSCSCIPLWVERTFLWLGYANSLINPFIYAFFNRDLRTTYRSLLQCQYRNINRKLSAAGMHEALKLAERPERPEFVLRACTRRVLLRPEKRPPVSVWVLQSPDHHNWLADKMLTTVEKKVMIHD

[42] = target: GABA-A receptor; anion channel (Rattus norvegicus) (UniProt O09028+P15431+P18506+P18508+P19969+P20236+P23574+P23576+P28471+P28473+P30191+P62813+P63079+P63138+Q91ZM7+Q9ES14); settings: Compound concentration 10.0 uM
[43] = species: Rattus norvegicus; settings: Compound concentration 10.0 uM

Sequence of Cyclin-dependent kinase 13 (Homo sapiens) (Q14004 whole entry, looked up): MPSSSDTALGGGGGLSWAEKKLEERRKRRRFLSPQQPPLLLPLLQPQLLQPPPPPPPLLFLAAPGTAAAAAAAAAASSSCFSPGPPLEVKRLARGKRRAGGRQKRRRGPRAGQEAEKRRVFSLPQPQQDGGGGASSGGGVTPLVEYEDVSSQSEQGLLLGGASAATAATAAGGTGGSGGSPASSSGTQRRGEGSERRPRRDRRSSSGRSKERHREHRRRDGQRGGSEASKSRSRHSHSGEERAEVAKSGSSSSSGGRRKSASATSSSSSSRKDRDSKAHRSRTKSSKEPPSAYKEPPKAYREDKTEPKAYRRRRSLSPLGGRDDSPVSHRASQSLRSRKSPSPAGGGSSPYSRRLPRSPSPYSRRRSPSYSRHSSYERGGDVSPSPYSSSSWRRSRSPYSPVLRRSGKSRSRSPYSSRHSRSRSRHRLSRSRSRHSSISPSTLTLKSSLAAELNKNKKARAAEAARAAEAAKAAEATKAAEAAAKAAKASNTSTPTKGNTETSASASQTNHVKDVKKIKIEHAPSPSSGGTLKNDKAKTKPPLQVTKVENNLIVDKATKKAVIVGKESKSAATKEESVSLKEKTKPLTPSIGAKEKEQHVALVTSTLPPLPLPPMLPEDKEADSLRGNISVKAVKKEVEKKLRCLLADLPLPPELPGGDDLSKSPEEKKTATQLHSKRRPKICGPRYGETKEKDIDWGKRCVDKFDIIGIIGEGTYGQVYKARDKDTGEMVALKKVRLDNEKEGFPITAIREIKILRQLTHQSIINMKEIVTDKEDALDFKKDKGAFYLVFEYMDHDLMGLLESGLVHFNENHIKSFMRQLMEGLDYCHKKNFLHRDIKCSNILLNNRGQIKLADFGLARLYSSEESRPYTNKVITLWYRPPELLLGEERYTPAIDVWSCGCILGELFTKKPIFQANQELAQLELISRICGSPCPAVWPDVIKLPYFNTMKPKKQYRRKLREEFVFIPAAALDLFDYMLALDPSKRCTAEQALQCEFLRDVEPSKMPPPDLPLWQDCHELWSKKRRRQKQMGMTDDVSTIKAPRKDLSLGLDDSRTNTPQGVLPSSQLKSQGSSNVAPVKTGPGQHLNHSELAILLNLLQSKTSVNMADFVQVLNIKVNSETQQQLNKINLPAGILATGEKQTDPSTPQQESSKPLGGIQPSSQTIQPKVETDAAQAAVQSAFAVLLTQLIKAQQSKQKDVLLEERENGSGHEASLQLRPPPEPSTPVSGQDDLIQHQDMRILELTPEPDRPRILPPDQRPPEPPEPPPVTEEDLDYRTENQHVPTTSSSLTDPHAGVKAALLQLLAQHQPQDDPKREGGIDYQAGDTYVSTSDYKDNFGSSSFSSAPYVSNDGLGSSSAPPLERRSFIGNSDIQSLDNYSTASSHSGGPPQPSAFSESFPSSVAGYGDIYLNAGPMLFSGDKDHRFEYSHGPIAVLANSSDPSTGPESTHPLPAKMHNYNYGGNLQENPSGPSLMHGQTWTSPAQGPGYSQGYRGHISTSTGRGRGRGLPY

CN([C@@H]1CCc2c(CC(=O)O)c3ccccc3n2C1)S(=O)(=O)c1ccc(F)cc1 [MK-7246]
inactive: residual activity [1] 100% | residual activity [2] 91% | residual activity [3] 95% | residual activity [4] 82% | residual activity [5] 94% | residual activity [6] 100% | residual activity [7] 100% | residual activity [8] 100% | residual activity [9] 100% | residual activity [10] 96% | residual activity [11] 88% | residual activity [12] 93% | residual activity [13] 95% | residual activity [14] 100% | residual activity [15] 56% | residual activity [16] 100% | residual activity [17] 100% | residual activity [18] 100% | residual activity [19] 100% | residual activity [20] 79% | residual activity [21] 100% | residual activity [22] 100% | residual activity [23] 100% | residual activity [24] 100% | residual activity [25] 94% | residual activity [26] 100% | residual activity [27] 100% | residual activity [28] 100% | residual activity [29] 97% | residual activity [31] 96% | residual activity [32] 100% | residual activity [33] 100% | residual activity [34] 100% | residual activity [35] 100% | residual activity [36] 97% | residual activity [37] 100% | residual activity [38] 99% | inhibition [39] -6.57% | inhibition [40] -1.51% | inhibition [41] 4.11% | inhibition [42] 27.7%
active: residual activity [30] 34% | inhibition [43] 54%

CN([C@@H]1CCc2c(CC(=O)O)c3cc(S(C)(=O)=O)ccc3n2C1)S(=O)(=O)c1ccc(F)cc1
active: residual activity [30] 6%
inactive: residual activity [1] 85% | residual activity [2] 83% | residual activity [3] 86% | residual activity [4] 87% | residual activity [5] 100% | residual activity [6] 100% | residual activity [7] 99% | residual activity [8] 100% | residual activity [9] 100% | residual activity [10] 98% | residual activity [11] 70% | residual activity [12] 95% | residual activity [13] 97% | residual activity [14] 100% | residual activity [15] 69% | residual activity [16] 100% | residual activity [17] 75% | residual activity [18] 100% | residual activity [19] 100% | residual activity [20] 77% | residual activity [21] 94% | residual activity [22] 100% | residual activity [23] 100% | residual activity [24] 100% | residual activity [25] 100% | residual activity [26] 96% | residual activity [27] 100% | residual activity [28] 100% | residual activity [29] 100% | residual activity [31] 97% | residual activity [32] 85% | residual activity [33] 97% | residual activity [34] 100% | residual activity [35] 100% | residual activity [36] 100% | residual activity [37] 94% | residual activity [38] 100% | inhibition [39] 7.27% | inhibition [40] 0.933% | inhibition [41] -3.44% | inhibition [42] 45% | inhibition [43] 41.4%
